According to US20240382469A1, “COMBINATION THERAPY WITH DEUTERATED IMIDAZOQUINOLINES” (BIRDIE BIOPHARMACEUTICALS, INC., priority 2021, published 2024):

Assays:
TC-1 cells = assay: In vivo efficacy of compound 1 in combination with various therapeutic antibodies in TC-1 animal model; set-up: species or system C57BL/6 mice; details: days 9, 12, 15, 18 and 21, p<0.05, FIG. 3
Experimental: Female C57BL/6 mice (5 to 6-week-old) were randomly divided into 7 groups (n=5 per group), including (1) placebo (PBS, i.p.); (2) compound 1 (1.6 μg; s.c.); (3) compound 1 and anti-CD137 antibody; (4) compound 1 and anti-TIGIT antibody; (5) compound 1 and anti-OX40 antibody; (6) compound 1 and anti-LAG3 antibody; (7) compound 1 and anti-CD47 antibody.
To challenge, each mouse was subcutaneously injected with 1×10^6 TC-1 cells in a volume of 0.1 mL into the left flank at day 0. Then, mice in each group received totally five doses of placebo, compound 1 or indicated combination therapy on days 9, 12, 15, 18 and 21. In each dose of combination therapy, 1.6 μg of compound 1 was given subcutaneously, and 200 μg of therapeutic antibody (anti-CD137, anti-TIGIT, anti-OX40, anti-LAG3 or anti-CD47 antibody) was given intraperitoneally. All mice were sacrificed on day 34. By using the same method as described in example 1, the tumor size was determined and the significance of all comparisons was calculated.

CT26 tumor cells [1] = assay: In vivo efficacy of deuterated compounds in combination with an anti-PD-1 antibody in CT26 animal model; set-up: species or system BALB/c mice; details: for tumor size as compared to placebo group and to anti-PD-1 antibody alone group / tumor size over the experimental period: 1.6 μg compound s.c. in combination with 50 μg anti-PD-1 antibody i.p., FIG. 1; for tumor size as compared to placebo group and to anti-PD-1 antibody alone group: days 6, 9 and 12, p<0.05 for both comparisons; for tumor size over the experimental period: followed to day 28
Experimental: Female BALB/c mice (5 to 6-week-old) were randomly divided into 5 groups (n=5 per group), including (1) placebo (PBS; s.c.); (2) anti-PD-1 antibody (50 μg; i.p.); (3) compound 1 and anti-PD-1 antibody; (4) compound 2 and anti-PD-1 antibody; (5) compound 3 and anti-PD-1 antibody.
To challenge mice, CT26 tumor cells (1×10^6 in 0.1 mL) were injected subcutaneously on day 0. Then, mice in each group received totally three doses of placebo, anti-PD-1 antibody or indicated combination therapy on days 6, 9 and 12. In each dose of combination therapy, 1.6 μg of TLR7/8 agonist (compound 1, 2 or 3) was given subcutaneously, and 50 μg of anti-PD-1 antibody (mAb) was given intraperitoneally. All mice were sacrificed on day 28. The tumor size was determined twice a week by multiplication of caliper measurements based on the modified ellipsoidal formula: Tumor volume=½ (length × width^2). Mice with tumor length over 2 cm were considered dead and mice without measurable or palpable tumor masses were considered tumor-free. The significance of all comparisons was calculated by using t-test, and results considered significant when p<0.05.

CT26 tumor cells [2] = assay: In vivo efficacy of compound 1 or proto-resiquimod in combination with an anti-PD-1 antibody in CT26 animal model; set-up: species or system BALB/c mice
Experimental: Female BALB/c mice (5 to 6-week-old) were randomly divided into 4 groups (n=5 per group), including (1) placebo (PBS; i.p.); (2) anti-PD-1 antibody (50 μg; i.p.); (3) compound 1 (1.6 μg; s.c.) and anti-PD-1 antibody (50 μg; i.p.); (4) proto-resiquimod (1.6 μg; s.c.) and anti-PD-1 antibody (50 μg; i.p.).
To challenge mice, CT26 tumor cells (1×10^6 in 0.1 mL) were injected subcutaneously on day 0. Then, mice in each group received totally three doses of placebo, anti-PD-1 antibody or indicated combination therapy. In placebo group, mice received PBS (s.c.) on days 7, 14 and 21. In anti-PD-1 antibody alone group, mice received 50 μg of anti-PD-1 antibody (i.p.) on days 7, 10 and 14. In each combination therapy group, mice received 1.6 μg of TLR7/8 agonist (compound 1 or proto-resiquimod) (s.c.) on days 7, 14 and 21, and 50 μg of anti-PD-1 antibody (i.p.) on days 7, 10 and 14. All mice were sacrificed on day 28. By using the same method as described in example 1, the tumor size was determined and the significance of all comparisons was calculated.

| Compound | tumor size as compared to placebo group or compound 1 alone group (TC-1 cells; 1.6 μg compound 1 s.c. in combination with 200 μg anti-CD47 antibody i.p.) | tumor size as compared to placebo group or compound 1 alone group (TC-1 cells; 1.6 μg compound 1 s.c. in combination with 200 μg anti-CD137 antibody i.p.) | tumor size as compared to placebo group or compound 1 alone group (TC-1 cells; 1.6 μg compound 1 s.c. in combination with 200 μg anti-LAG3 antibody i.p.) | tumor size as compared to placebo group or compound 1 alone group (TC-1 cells; 1.6 μg compound 1 s.c. in combination with 200 μg anti-OX40 antibody i.p.) | tumor size as compared to placebo group or compound 1 alone group (TC-1 cells; 1.6 μg compound 1 s.c. in combination with 200 μg anti-TIGIT antibody i.p.) | tumor size as compared to placebo group and to anti-PD-1 antibody alone group (CT26 tumor cells [1]) | tumor size over the experimental period (CT26 tumor cells [1]) | tumor inhibitory effect compared with the other deuterated compounds (CT26 tumor cells [1]; in combination with anti-PD-1 antibody, p<0.05 for each comparison) | tumor size (CT26 tumor cells [2]; 1.6 μg TLR7/8 agonist s.c. days 7, 14 and 21 in combination with 50 μg anti-PD-1 antibody i.p. days 7, 10 and 14, FIG. 2) | tumor inhibitory effect compared with proto-resiquimod (CT26 tumor cells [2]; in combination with anti-PD-1 antibody, p<0.05) |
| --- | --- | --- | --- | --- | --- | --- | --- | --- | --- | --- |
| [2H]C([2H])([2H])C([2H])([2H])OCc1nc2c(N)nc3ccccc3c2n1CC(C)(C)O [Compound 1] | significantly suppress tumor size | significantly suppress tumor size | significantly suppress tumor size | significantly suppress tumor size | significantly suppress tumor size | significantly reduce tumor size | almost completely suppressed tumor size | outstanding and significant tumor inhibitory effect than compounds 2 or 3 | potently inhibit tumor size | more significant tumor inhibitory effect than proto-resiquimod |
| [2H]C([2H])([2H])C(O)(C([2H])([2H])[2H])C([2H])([2H])n1c(COCC)nc2c(N)nc3ccccc3c21 [Compound 2] |  |  |  |  |  | significantly reduce tumor size | initially well controlled, however, slightly grew at the last week |  |  |  |
| [2H]C([2H])([2H])C(O)(Cn1c(COCC)nc2c(N)nc3ccccc3c21)C([2H])([2H])[2H] [Compound 3] |  |  |  |  |  | significantly reduce tumor size | initially well controlled, however, slightly grew at the last week |  |  |  |
